Literature values in patent US7718634B2, “Method of treatment using bisphosphonic acid” (Hoffman-La Roche Inc., priority 2002, dated 2010).

Legend:
bone resorption = details: animal models of bone resorption

## CCCCCN(C)CCC(O)(P(=O)(O)O)P(=O)(O)O [ibandronate, 1-hydroxy-3-(N-methyl-N-pentyl)aminopropylidene-1,1-bisphosphonic acid]
Bone resorption; relative to alendronate
  times more potent than alendronate: 10 times
Bone resorption; relative to clodronate
  times more potent than clodronate: 500 times
Bone resorption; relative to pamidronate
  times more potent than pamidronate: 50 times
Bone resorption; relative to risedronate
  times more potent than risedronate: 2 times
osteoclasts; at high doses
  number of osteoclasts: reduces the number of osteoclasts
osteoclasts; in vivo
  bone resorption and mineralization: inhibits bone resorption without any impairment of mineralization
  osteoclastic activity: decrease osteoclastic activity
